Where a SMILES comes first, the peptide text is derived from it. Bridges are numbered along the chain shown (N, C = ends). [ ]: non-standard residue; d: D form. 2Nal = N[C@@H](Cc1ccc2ccccc2c1)C(=O)O; Ala(cPr) = N[C@@H](CC1CC1)C(=O)O; NMeE = CN[C@@H](CCC(=O)O)C(=O)O; NMeQ = CN[C@@H](CCC(N)=O)C(=O)O; Cha = N[C@@H](CC1CCCCC1)C(=O)O; Cba = N[C@@H](CC1CCC1)C(=O)O; S5 = C=CCCC[C@](C)(N)C(=O)O; Ac6c = NC1(C(=O)O)CCCCC1
What was measured:
Colo320DM = Colo320DM cell viability; type: cell-based, human
Description: In some embodiments, a polypeptide described herein inhibits binding of BLC9 to β-catenin when assessed in a cell-viability assay. In some embodiments, the cell-viability assay is a CellTiterGlo luminescent assay, wherein the viability of cells is quantitatively measured. Various cell lines, transformed cell lines or primary cells derived from a healthy subject or subject suffering from a disease can be used in this assay.

LEF-TCF-bla HCT116 cells = test: Wnt reporter assay: Wnt/Beta-Catenin-LEF-TCF-bla HCT116 inhibitor screen, constitutively activated; type: cell-based; settings: 5 hours incubation with compound
Description: In various embodiments, a polypeptide described herein inhibits binding of BCL9 to β-catenin when assessed in a Wnt transcription assay. In some embodiments, the Wnt transcription assay is a cell-based assay. In some embodiments, the cell-based Wnt transcription assay is a GeneBLAzer® beta-lactamase (bla) reporter assay. Various cell lines, transformed cell lines or primary cells derived from a healthy subject or subject suffering from a disease can be used in this assay. A cell line known to be dependent on canonical Wnt/β-catenin signaling for its survival may also be used. In some embodiments, CellSensor™ LEF/TCF-bla HCT-116 cells are used in this reporter assay. These cells contain a beta-lactamase (BLA) reporter gene under the control of a 0-catenin/LEF/TCF response element stably integrated into HCT-116 cells. As the cells constitutively express beta-lactamase, adding a polypeptide that inhibits binding of BCL9 to β-catenin in this assay leads to reduced production of beta-lactamase. The efficiency of the polypeptide in suppressing Wnt transcription can therefore be quantitatively calculated in this assay. In some embodiments, a polypeptide described herein suppresses the Wnt transcription as measured in a GeneBLAzer® beta-lactamase (bla) reporter assay, which is indicative of the ability of the polypeptide to inhibit binding of BCL9 to β-catenin.
Wnt/Beta-Catenin-LEF-TCF-bla HCT116-Inhibitor Screen, Constitutively Activated. LEF-TCF-bla HCT116 cells are thawed and prepared as described above for the Activator Screen. 32 μL of cell suspension is added to each well of a 384-well Poly-D-Lysine assay plate. Cells in Assay Media are incubated for 16-24 hours in the plate at 37° C./5% CO2 in a humidified incubator. 4 μL of a 10× serial dilution of ICG-001 (control inhibitor starting concentration, 25,000 nM) or compounds are added to appropriate wells of the plate. 4 μL of Assay Media is added to all wells to bring the final assay volume to 40 μL. The plate is incubated for 5 hours at 37° C./5% CO2 in a humidified incubator. 8 μL of 1 μM Substrate Loading Solution is added to each well and the plate is incubated for 2 hours at room temperature. The plate is read on a fluorescence plate reader.

β-catenin [1] = molecular target: T1, β-catenin (Homo sapiens, UniProt P35222); test: ka(1/Ms)
Description: (§1) Table printed on a drawing sheet, FIG. 1
Head of the field: ka(1/Ms)
(§2) First copying reader's note: Kinetic binding constants printed under a sensorgram plot (Biacore assay of β-catenin binding according to the description).

β-catenin [2] = molecular target: T1, β-catenin; test: kd(1/s)
Description: as §1
Head of the field: kd(1/s)
as §2

β-catenin [3] = molecular target: T1, β-catenin; test: KD(nM)
Description: as §1
Head of the field: KD(nM)
as §2

T1 sequence (P35222 2-781 limits assumed): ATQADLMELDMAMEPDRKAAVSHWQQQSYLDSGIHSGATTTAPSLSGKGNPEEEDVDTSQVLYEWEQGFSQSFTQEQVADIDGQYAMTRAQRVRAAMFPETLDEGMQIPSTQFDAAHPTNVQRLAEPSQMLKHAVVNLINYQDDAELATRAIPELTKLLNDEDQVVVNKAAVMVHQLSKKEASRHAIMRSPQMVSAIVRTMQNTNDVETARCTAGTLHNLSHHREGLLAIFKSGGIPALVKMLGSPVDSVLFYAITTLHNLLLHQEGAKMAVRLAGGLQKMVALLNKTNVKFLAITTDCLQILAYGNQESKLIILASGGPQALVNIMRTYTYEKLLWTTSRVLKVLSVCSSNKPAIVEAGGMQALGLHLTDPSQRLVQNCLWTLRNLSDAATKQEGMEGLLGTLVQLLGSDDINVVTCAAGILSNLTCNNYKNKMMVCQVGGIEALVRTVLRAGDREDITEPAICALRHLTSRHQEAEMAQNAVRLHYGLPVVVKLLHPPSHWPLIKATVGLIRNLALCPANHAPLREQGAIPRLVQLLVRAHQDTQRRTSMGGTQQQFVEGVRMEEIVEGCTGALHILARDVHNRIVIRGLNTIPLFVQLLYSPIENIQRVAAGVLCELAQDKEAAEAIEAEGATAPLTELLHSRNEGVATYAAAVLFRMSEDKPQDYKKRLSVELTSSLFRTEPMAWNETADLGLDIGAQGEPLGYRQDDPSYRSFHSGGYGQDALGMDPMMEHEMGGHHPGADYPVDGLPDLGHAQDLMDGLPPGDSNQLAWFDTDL

Compound	IC50 (Colo320DM) [µM]	IC50 (LEF-TCF-bla HCT116 cells) [µM]	ka(1/Ms) (β-catenin [1]) [E + 5 1/Ms]	kd (β-catenin [2]) [s⁻¹]	Kd (β-catenin [3]) [µM]
CC[C@H](C)[C@@H]1NC(=O)[C@@](C)(NC(=O)[C@H](CCCNC(=N)N)NC(=O)[C@H](CC(C)C)NC(=O)[C@@H](NC(=O)[C@H](CCC(N)=O)N(C)C(=O)[C@H](CC(C)C)NC(C)=O)[C@@H](C)O)CCCC=CCCC[C@@](C)(C(=O)N[C@@H](CC2CCC2)C(=O)N[C@@H](Cc2ccc3ccccc3c2)C(N)=O)NC(=O)[C@H](CCCNC(=N)N)NC(=O)[C@H](CCC(N)=O)NC1=O [SEQ ID NO: 108, L(N-methylQ)TLRXIQRX(CBA)(2-Nal)] (Ac-L[NMeQ]TLR[S5]IQR[S5][Cba][2Nal]-NH2; staple 6-10)	3.1	3.16			
CC[C@H](C)[C@@H]1NC(=O)[C@@](C)(NC(=O)[C@H](CCCNC(=N)N)NC(=O)[C@H](CC(C)C)NC(=O)[C@@H](NC(=O)[C@H](CCC(N)=O)NC(=O)[C@H](CC(C)C)NC(=O)[C@H](CO)NC(=O)[C@H](CCCNC(=N)N)NC(=O)[C@H](CCC(N)=O)NC(=O)[C@H](CCCNC(=N)N)NC(=O)[C@H](Cc2c[nH]cn2)NC(C)=O)[C@@H](C)O)CCCC=CCCC[C@@](C)(C(=O)N[C@@H](CC2CCC2)C(=O)N[C@@H](Cc2ccc3ccccc3c2)C(N)=O)NC(=O)[C@H](CCCNC(=N)N)NC(=O)[C@H](CCC(N)=O)NC1=O [SEQ ID NO: 147, HRQRSLQTLRXIQRX(CBA)(2-Nal)]	2.53	1.54	3.348	0.009538	0.0285
CC[C@H](C)[C@@H]1NC(=O)[C@@](C)(NC(=O)[C@H](CCCNC(=N)N)NC(=O)[C@H](CC(C)C)NC(=O)[C@@H](NC(=O)[C@H](CCC(N)=O)N(C)C(=O)[C@H](CC(C)C)NC(=O)[C@H](CO)NC(=O)[C@H](CCCNC(=N)N)NC(=O)[C@H](CCC(=O)O)N(C)C(=O)[C@H](CCCNC(=N)N)NC(=O)[C@H](Cc2c[nH]cn2)NC(C)=O)[C@@H](C)O)CCCC=CCCC[C@@](C)(C(=O)N[C@@H](CC2CCC2)C(=O)N[C@@H](Cc2ccc3ccccc3c2)C(N)=O)NC(=O)[C@H](CCCNC(=N)N)NC(=O)[C@H](CCC(N)=O)NC1=O [SEQ ID NO: 154, HR(N-methylE)RSL(N-methylQ)TLRXIQRX(CBA)(2-Nal)] (Ac-HR[NMeE]RSL[NMeQ]TLR[S5]IQR[S5][Cba][2Nal]-NH2; staple 11-15)	1.91	2.26			
CC[C@H](C)[C@@H]1NC(=O)[C@@](C)(NC(=O)[C@H](CCCNC(=N)N)NC(=O)[C@H](CC(C)C)NC(=O)[C@@H](NC(=O)[C@H](CCC(N)=O)NC(=O)[C@H](CC(C)C)NC(=O)[C@H](CO)NC(=O)[C@H](CCCNC(=N)N)NC(=O)[C@H](CCC(N)=O)NC(=O)[C@H](CCCNC(=N)N)NC(=O)[C@H](Cc2c[nH]cn2)NC(C)=O)[C@@H](C)O)CCCC=CCCC[C@@](C)(C(=O)N[C@@H](CC2CC2)C(=O)N[C@@H](Cc2ccc3ccccc3c2)C(N)=O)NC(=O)[C@H](CCCNC(=N)N)NC(=O)[C@H](CCC(N)=O)NC1=O [SEQ ID NO: 162, HRQRSLQTLRXIQRX(Cpa)(2-Nal)] (Ac-HRQRSLQTLR[S5]IQR[S5][Ala(cPr)][2Nal]-NH2; staple 11-15)	4.19	7.05			
CC[C@H](C)[C@@H]1NC(=O)[C@@](C)(NC(=O)[C@H](CCCNC(=N)N)NC(=O)[C@H](CC2CCCCC2)NC(=O)[C@@H](NC(=O)[C@H](CCC(N)=O)N(C)C(=O)[C@H](CC(C)C)NC(=O)[C@H](CO)NC(=O)[C@H](CCCNC(=N)N)NC(=O)[C@H](CCC(N)=O)N(C)C(=O)[C@H](CCCNC(=N)N)NC(=O)[C@H](Cc2c[nH]cn2)NC(C)=O)[C@@H](C)O)CCCC=CCCC[C@@](C)(C(=O)N[C@@H](CC2CCC2)C(=O)N[C@@H](Cc2ccc3ccccc3c2)C(N)=O)NC(=O)[C@H](CCCNC(=N)N)NC(=O)[C@H](CCC(N)=O)NC1=O [SEQ ID NO: 163, HR(N-methylQ)RSL(N-methylQ)T(Cha)RXIQRX(CBA)(2-Nal)] (Ac-HR[NMeQ]RSL[NMeQ]T[Cha]R[S5]IQR[S5][Cba][2Nal]-NH2; staple 11-15; N-terminus and C-terminus assumed)	2.39	4.43			
CC[C@H](C)[C@@H]1NC(=O)[C@@](C)(NC(=O)[C@H](CCCNC(=N)N)NC(=O)[C@H](CC(C)C)NC(=O)[C@@H](NC(=O)[C@H](CCC(N)=O)NC(=O)[C@H](CC(C)C)NC(=O)[C@H](CO)NC(=O)[C@H](CCCNC(=N)N)NC(=O)[C@H](CCC(N)=O)NC(=O)[C@H](CCCNC(=N)N)NC(=O)[C@H](Cc2c[nH]cn2)NC(C)=O)[C@@H](C)O)CCCC=CCCC[C@@](C)(C(=O)NC2(C(=O)N[C@@H](Cc3ccc4ccccc4c3)C(N)=O)CCCCC2)NC(=O)[C@H](CCCNC(=N)N)NC(=O)[C@H](CCC(N)=O)NC1=O [SEQ ID NO: 177, HRQRSLQTLRXIQRX(A6C)(2-Nal)] (Ac-HRQRSLQTLR[S5]IQR[S5][Ac6c][2Nal]-NH2; staple 11-15)	2.67	4.45			
CC[C@H](C)[C@@H]1NC(=O)[C@@](C)(NC(=O)[C@H](CCCNC(=N)N)NC(=O)[C@H](CC(C)C)NC(=O)[C@@H](NC(=O)[C@H](CCC(N)=O)NC(=O)[C@H](CC(C)C)NC(=O)[C@H](CO)NC(=O)[C@H](CCCNC(=N)N)NC(=O)[C@H](CCC(N)=O)NC(=O)[C@H](CCCNC(=N)N)NC(=O)[C@H](Cc2c[nH]cn2)NC(C)=O)[C@@H](C)O)CCCC=CCCC[C@@](C)(C(=O)N[C@@H](CC2CCCCC2)C(=O)N[C@@H](Cc2ccc3ccccc3c2)C(N)=O)NC(=O)[C@H](CCCNC(=N)N)NC(=O)[C@H](CCC(N)=O)NC1=O [SEQ ID NO: 180, HRQRSLQTLRXIQRX(Cha)(2-Nal)] (Ac-HRQRSLQTLR[S5]IQR[S5][Cha][2Nal]-NH2; staple 11-15)	1.88	2.21			
CC[C@H](C)[C@@H]1NC(=O)[C@@](C)(NC(=O)[C@H](CCCNC(=N)N)NC(=O)[C@H](CC(C)C)NC(=O)[C@@H](NC(=O)[C@H](CCC(N)=O)N(C)C(=O)[C@H](CC(C)C)NC(=O)[C@H](CO)NC(=O)[C@H](CCCNC(=N)N)NC(=O)[C@H](CCC(N)=O)N(C)C(=O)[C@H](CCCNC(=N)N)NC(=O)[C@H](Cc2c[nH]cn2)NC(C)=O)[C@@H](C)O)CCCC=CCCC[C@@](C)(C(=O)N[C@@H](CC2CCCCC2)C(=O)N[C@@H](Cc2ccc3ccccc3c2)C(N)=O)NC(=O)[C@H](CCCNC(=N)N)NC(=O)[C@H](CCC(N)=O)NC1=O [SEQ ID NO: 181, HR(N-methylQ)RSL(N-methylQ)TLRXIQRX(Cha)(2-Nal)] (Ac-HR[NMeQ]RSL[NMeQ]TLR[S5]IQR[S5][Cha][2Nal]-NH2; staple 11-15)	1.82	4.46			

Source: US11591365B2, “BCL9 peptides and variants thereof” (WntRx Pharmaceuticals Inc., priority 2017, dated 2023)
